Common to all, as to experiment: growth of human tumour cells (NCI), 48 h
The subject of experiment [1] is SW-620 colon.
The subject of experiment [2] is HCT-15 colon.
For experiment [3], the system named is HCC-2998 colon.
Experiment [4] has as its system COLO 205 colon.
In experiment [5] the test system is TK-10 renal.
Experiment [6] relates to NCI-H23 lung.
In experiment [7] the test system is SNB-75 CNS.
In experiment [8] the test system is HS 578T breast.
For experiment [9], the system named is A498 renal.
Experiment [10] concerns SK-MEL-5 melanoma.
Experiment [11] concerns MALME-3M melanoma.
Experiment [12] has as its system U251 CNS.
Experiment [13] concerns SF-539 CNS.
Experiment [14] deals with HOP-62 NSCLC.
For experiment [15], the system named is DU-145 prostate.
The test system of experiment [16] is HL-60(TB) leukemia.

Molecules are shown by their SMILES.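 Growth conditions: 96-well plates. Treatment: test compound, 48 hours, 5 concentrations. Analysis: linear interpolation between bracketing concentrations; unreached endpoints set to highest concentration. The concentration for full growth arrest is given as TGI.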

The values below come from PubChem BioAssay (NCI).

Take `COc1cc2nc(Cl)nc(NS(=O)(=O)c3cc4ccccc4s3)c2cc1OC`: the TGI in [1] was 43.5 µM; in experiment [2], greater than 100 µM; in experiment [3] it was 39.3 µM; in experiment [4], greater than 100 µM; in experiment [5], greater than 100 µM; in experiment [6], 62.5 µM. Further, the TGI in experiment [7] was 60 µM; in experiment [8], greater than 100 µM; in [9] it was 35.3 µM; in [10], 37.9 µM; in experiment [11] it was greater than 100 µM; in [12], 68.5 µM. The TGI in experiment [13] was greater than 100 µM; in [14], greater than 100 µM; in experiment [15], 60.1 µM.

Take `C[C@H]1CC[C@@]2(OC1)O[C@H]1C[C@H]3[C@@H]4CC[C@@H]5C[C@@H](OC6OC(CO)C(O)C(O)C6OC6OC(CO)C(O)C(O)C6O)CC[C@]5(C)[C@H]4CC[C@]3(C)[C@H]1[C@@H]2C` (stereo partly drawn): the TGI in [1] came out at 3.4 µM; in experiment [2], 3.67 µM; in experiment [3] it was 3.71 µM; in experiment [4], 3.55 µM; in experiment [5] it was 3.61 µM; in [6] it was 4.06 µM. Besides, the TGI in experiment [16] was found to be 3.25 µM; in experiment [7], 4.07 µM; in [8], 4.47 µM; in experiment [10], 3.93 µM; in experiment [11] it was 4.5 µM; in experiment [12] it was 4 µM. The values for the TGI in experiment [13], in [14] and in [15] were 3.72 µM, 3.99 µM and 4.1 µM, respectively.

For the compound `Oc1c(N2CCCCC2)cc(-c2cc(N3CCCCC3)c(O)c3ccccc23)c2ccccc12`, the TGI is 94.2 µM in experiment [1]; greater than 100 µM in experiment [2]; greater than 100 µM in [3]; 67.6 µM in [4]; greater than 100 µM in experiment [5]; 79.7 µM in experiment [6]. The TGI in experiment [16] is greater than 100 µM; in [8], 72.6 µM; in experiment [10], 34.6 µM; in experiment [11], 24.3 µM; in [12], greater than 100 µM; in experiment [13] it was 81.8 µM. Besides, the TGI in experiment [14] was greater than 100 µM; in experiment [15], 49 µM.

With `O=c1[nH]c(N/N=C\C(O)C(O)C(O)C(O)CO)nc2ccccc12` (stereo not drawn), the TGI in experiment [1], in [2], in experiment [4], in experiment [5], in experiment [6] and in experiment [16] was greater than 100 µM each time. The TGI in experiment [7], in experiment [8], in [9], in experiment [10], in [12] and in experiment [13] was greater than 100 µM each time. Moreover, the TGI in experiment [14] and in experiment [15] was greater than 100 µM each time.

On to `CC(=O)c1ccc(N=NN2CCCC2)cc1`, for which the TGI in [1], in [2], in experiment [3], in experiment [4], in experiment [5] and in [6] was greater than 100 µM in each case. The TGI is greater than 100 µM in experiment [16]; greater than 100 µM in experiment [7]; greater than 100 µM in experiment [8]; 37.3 µM in [9]; greater than 100 µM in experiment [10]; greater than 100 µM in experiment [12]. Moreover, the TGI in experiment [13], in [14] and in [15] was greater than 100 µM each time.

`O=S(=O)(/N=C(\NO)Nc1ccc(Cl)cc1)c1cc(C(F)(F)F)cc(C(F)(F)F)c1`: the TGI in [1] is greater than 100 µM; in experiment [2], 38.7 µM; in experiment [4] it was 35.5 µM; in [5] it was 37.6 µM; in experiment [6], 36.6 µM; in experiment [16], 79 µM. Also, the TGI in experiment [7] came to 33.1 µM; in experiment [8], 60.5 µM; in experiment [10] it was 32.8 µM; in [11], 37.1 µM; in experiment [12], 31.4 µM; in experiment [13], 46.6 µM. The TGI was found to be 36.9 µM in experiment [14] and 44.1 µM in experiment [15].

Consider `N#Cc1sc2nc3ccccc3n2c1N`, for which the TGI in experiment [1], in experiment [2], in experiment [3], in experiment [4], in experiment [5] and in experiment [6] was greater than 100 µM each time. Moreover, the TGI in experiment [7], in [8], in experiment [9], in experiment [10], in experiment [11] and in experiment [12] was greater than 100 µM in each case. In addition, the TGI in experiment [13], in [14] and in [15] was greater than 100 µM in each case.

For `Cc1c(C)c(S(=O)(=O)N(CCCCN)OCCCN)c(C)c2c1OC(C)(C)CC2`, the TGI in experiment [1] is greater than 100 µM; in experiment [2], 46.9 µM; in [3], 20.8 µM; in [4] it was greater than 100 µM; in experiment [5], 37.8 µM; in experiment [6], 38.1 µM. Moreover, the TGI in experiment [16] is greater than 100 µM; in [7] it was 32.7 µM; in [8] it was 36.1 µM; in experiment [9], 41.6 µM; in [10], greater than 100 µM; in experiment [12] it was greater than 100 µM. Also, the TGI turned out to be 64.2 µM in [13], 32.6 µM in experiment [14] and 57.7 µM in [15].

For `c1cc(-c2ccc(-c3ccsc3)s2)cs1`, the TGI in experiment [1] was greater than 100 µM; in experiment [2] it was greater than 100 µM; in [3], greater than 100 µM; in [4], greater than 100 µM; in experiment [5], greater than 100 µM; in experiment [6] it was 61 µM. Moreover, the TGI is 67 µM in [16]; 76.4 µM in [7]; greater than 100 µM in experiment [8]; greater than 100 µM in [9]; greater than 100 µM in experiment [10]; 49.7 µM in experiment [12]. The figures for the TGI in experiment [13], in experiment [14] and in [15] were 89.8 µM, greater than 100 µM and greater than 100 µM, respectively.

Consider `O=C(NCCC1CNc2ccccc21)OCc1ccccc1` (stereo not drawn), for which the TGI in experiment [1], in experiment [2], in experiment [3], in experiment [4], in experiment [6] and in experiment [8] was greater than 100 µM each time. For the same compound, the TGI in experiment [9], in experiment [10], in [11], in [12], in experiment [14] and in experiment [15] was greater than 100 µM each time.

Consider `O=[N+]([O-])c1ccc(/C=N/Nc2nc3ccccc3[nH]2)o1`, for which the TGI in experiment [1] was 28.3 µM; in [2] it was 42.8 µM; in experiment [4], 23 µM; in [5], 50 µM; in experiment [6], 43.6 µM; in [16] it was 11.4 µM. Besides, the TGI in experiment [7] is 36.4 µM; in experiment [8], greater than 100 µM; in experiment [10] it was 14.3 µM; in [11], 30.7 µM; in [12] it was 92.8 µM; in experiment [13], 13.8 µM. Further, the TGI in experiment [14] stood at 35.4 µM; in experiment [15], 27.1 µM.

In the case of `CCOC(=O)c1c(NC(=O)c2ccccc2)c(C#N)c2n1CCCCC2`, the TGI in [2], in experiment [3], in experiment [4], in experiment [5], in experiment [6] and in experiment [16] was greater than 100 µM each time. The TGI in [7], in experiment [8], in [10], in [11], in [12] and in [14] was greater than 100 µM each time. This compound registered a TGI in [15] greater than 100 µM.

With `CC1=NN(c2nc(N)nc(C(C)Cl)n2)C(C)(C)C1` (stereo not drawn), the TGI in [1], in experiment [2], in experiment [3], in experiment [4], in [5] and in experiment [6] was greater than 100 µM each time. The TGI in [16], in experiment [7], in [8], in experiment [9], in experiment [10] and in experiment [12] was greater than 100 µM throughout. The TGI in [13], in experiment [14] and in experiment [15] was greater than 100 µM each time.

Turning to `CSC(=O)/C=C1\SS/C(=C\C(=O)SC)S1`, the TGI in experiment [1] was 4.15 µM; in experiment [2], 6.07 µM; in experiment [3], 3.33 µM; in experiment [4], 30.6 µM; in [5] it was 15.5 µM; in [6] it was 27.6 µM. Further, the TGI turned out to be 10.5 µM in experiment [7]; 13.8 µM in experiment [8]; 21.5 µM in [9]; 6.79 µM in [10]; 4.6 µM in [11]; 6.03 µM in [12]. In addition, the TGI stood at 6.93 µM in experiment [13], 20.4 µM in [14] and 15.7 µM in experiment [15].

In the case of `Cc1cc(O)c(/C=N/C(N)=S)c(=O)o1`, the TGI was greater than 100 µM in [1]; greater than 100 µM in experiment [2]; greater than 100 µM in experiment [3]; greater than 100 µM in experiment [4]; 90.5 µM in [5]; greater than 100 µM in experiment [6]. The TGI in experiment [16] is 41.2 µM; in experiment [7], greater than 100 µM; in experiment [8], greater than 100 µM; in experiment [10], greater than 100 µM; in experiment [12], greater than 100 µM; in experiment [13], greater than 100 µM. The TGI in [14] and in experiment [15] was greater than 100 µM each time.

`COC1(OC)CCc2c(sc3ncnc(Nc4cccc(Br)c4)c23)C1`: the TGI in [1], in [2], in experiment [3], in [4], in [5] and in experiment [6] was greater than 100 µM throughout. The TGI in experiment [7] was 83.2 µM; in [8] it was greater than 100 µM; in [9], greater than 100 µM; in experiment [10] it was greater than 100 µM; in experiment [11], greater than 100 µM; in [12] it was greater than 100 µM. The TGI in [13] was greater than 100 µM; in [14], greater than 100 µM; in experiment [15], 53.9 µM.

On to `Cn1c2ccccc2c(=O)c2c(O)cc3c(c21)C1OCC(C)(O)C1O3` (stereo not drawn), for which the TGI in experiment [1], in [2], in experiment [3], in [4], in experiment [5] and in experiment [16] was greater than 100 µM in each case. Moreover, the TGI in [7] is 56 µM; in experiment [8] it was 37.5 µM; in experiment [10] it was greater than 100 µM; in [12], 62.5 µM; in [13], 56.2 µM; in experiment [14], greater than 100 µM. The compound further showed a TGI in experiment [15] greater than 100 µM.

As to `CC(N)(CC(O)(C(F)(F)Cl)C(F)(F)Cl)C(=O)O` (stereo not drawn), the TGI in [1], in experiment [2], in experiment [3], in experiment [4], in [5] and in experiment [6] was greater than 10 µM throughout. For the same compound, the TGI in [7], in [8], in experiment [9], in experiment [10], in experiment [11] and in experiment [12] was greater than 10 µM throughout. Further, the TGI in experiment [13], in [14] and in [15] was greater than 10 µM in each case.

On to `COC(=O)/C=C/c1ccc(OP(=O)(O)O)c(OC)c1`, for which the TGI in experiment [1], in experiment [2], in experiment [3], in [4], in [5] and in experiment [6] was greater than 100 µM throughout. In addition, the TGI in experiment [7], in [8], in [9], in experiment [10], in experiment [11] and in experiment [12] was greater than 100 µM throughout. Besides, the TGI in [13], in experiment [14] and in experiment [15] was greater than 100 µM throughout.
